Reference: patent publication US20220218852A1, “NOVEL RADIOLABELLED CXCR4-TARGETING COMPOUNDS FOR DIAGNOSIS AND THERAPY” (PROVINCIAL HEALTH SERVICES AUTHORITY, priority 2019, published 2022)
Like-named read-outs stand apart in the source and are kept apart here. Positions of bridges follow the written chain, without caps; N, C: chain ends. Non-standard residues stand in square brackets, D forms with d. Residues, ends and D or L forms follow the SMILES beside them. Groups on a side chain read outwards from the residue. *: point of attachment. DOTA = O=C(O)CN1CCN(CC(=O)O)CCN(CC(=O)*)CCN(CC(=O)O)CC1; 2Nal = N[C@@H](Cc1ccc2ccccc2c1)C(=O)O; Lys(iPr) = CC(C)NCCCC[C@H](N)C(=O)O

Tests used:
Assay type in all cases: in vivo
[1] = test system: Z138 mantle cell lymphoma xenografts; test: Biodistribution in Z138 tumor-bearing mice; conditions: 72 h
Description: (§1) For Daudi, Z138, GRANTA519 and Jeko1 xenografts, male NOD.Cg-Rag1^tm1MomII2rg^tm1Wjl/SzJ (NRG) mice were subcutaneously inoculated on the left flank with 5×10^6 cells (100 μL; 1:1 ratio of PBS/Matrigel) and tumors were grown to a size of 200-500 mm^3. For PC-3 xenografts, male NOD.Cg-Rag1^tm1MomII2rg^tm1Wjl/SzJ (NRG) mice were subcutaneously inoculated on the left flank with 5×10^6 PC-3 cells (100 μL; 1:1 ratio of PBS/Matrigel) and tumors were grown to a size of 200-400 mm^3.
(§2) The mice were euthanized via CO2 inhalation while anesthetized with isoflurane. Tissues were harvested, washed in PBS, blotted dry, weighed, and measured on a Hidex AMG Automatic Gamma Counter.

[2] = Biodistribution in GRANTA519 tumor-bearing mice; conditions: male, NOD.Cg-Rag1^tm1MomII2rg^tm1Wjl/SzJ (NRG), mouse, iv, total radioactivity
Description: as §1, §2

[3] = test system: GRANTA519 mantle cell lymphoma xenografts; test: Biodistribution in GRANTA519 tumor-bearing mice
Description: as §1, §2

[4] = GRANTA519 tumour, read-out: Biodistribution GRANTA519 (tumour)
[5] = adrenals, read-out: Biodistribution Adrenals
[6] = bone, read-out: Biodistribution Bone
[7] = fat, read-out: Biodistribution Fat
[8] = intestine, read-out: Biodistribution Intestine
[9] = kidney, read-out: Biodistribution Kidney
[10] = liver, read-out: Biodistribution Liver
[11] = lung, read-out: Biodistribution Lung
[12] = muscle, read-out: Biodistribution Muscle
[13] = pancreas, read-out: Biodistribution Pancreas
[14] = spleen, read-out: Biodistribution Spleen
[15] = stomach, read-out: Biodistribution Stomach
[16] = testes, read-out: Biodistribution Testes
[17] = whole blood, read-out: Biodistribution Blood

CC(C)NCCCC[C@@H]1NC(=O)[C@H](Cc2ccc(O)cc2)NC(=O)[C@H](Cc2ccccc2)NC(=O)CC[C@H](C(=O)N[C@@H](CCCCNC(C)C)C(=O)N[C@@H](CCCCNC(=O)[C@H](CCC(=O)O)NC(=O)[C@H](CCC(=O)O)NC(=O)[C@H](CCC(=O)O)NC(=O)CN2CCN(CC(=O)O)CCN(CC(=O)O)CCN(CC(=O)O)CC2)C(N)=O)NC(=O)CNC(=O)[C@H](Cc2ccc3ccccc3c2)NC(=O)[C@@H](CCCNC(=N)N)NC1=O [[^177Lu]Lu-BL02, metal not drawn] (FY[Lys(iPr)][dR][2Nal]G[dE][Lys(iPr)]K([Glu-Glu-Glu-DOTA])-NH2; lactam N-7)
Ratio Tumour:Bone [1]: 68.39 | Ratio Tumour:Liver [1]: 8.32 | Ratio Tumour:Lung [1]: 21.59 | Ratio Tumour:Muscle [1]: 358.55 | Ratio Tumour:Spleen [1]: 13.86 | tissue uptake at 1 h ([2]; GRANTA519 tumour, 1 h, read-out: Biodistribution GRANTA519 (tumour)): 6.83 %ID/g | tissue uptake at 1 h ([2]; GRANTA519 tumour, 1 h blocked, read-out: Biodistribution GRANTA519 (tumour)): 0.84 %ID/g | tissue uptake at 4 h [2, 4]: 3.22 %ID/g | tissue uptake at 24 h [2, 4]: 1.09 %ID/g | tissue uptake at 72 h [2, 4]: 0.353 %ID/g | tissue uptake at 1 h ([2]; adrenals, 1 h, read-out: Biodistribution Adrenals): 0.39 %ID/g | tissue uptake at 1 h ([2]; adrenals, 1 h blocked, read-out: Biodistribution Adrenals): 0.48 %ID/g | tissue uptake at 4 h [2, 5]: 0.1 %ID/g | tissue uptake at 24 h [2, 5]: 0.094 %ID/g | tissue uptake at 72 h [2, 5]: 0.346 %ID/g | tissue uptake at 1 h ([2]; bone, 1 h, read-out: Biodistribution Bone): 0.24 %ID/g | tissue uptake at 4 h [2, 6]: 0.09 %ID/g | tissue uptake at 24 h [2, 6]: 0.09 %ID/g | tissue uptake at 72 h [2, 6]: 0.061 %ID/g | tissue uptake at 1 h ([2]; bone, 1 h blocked, read-out: Biodistribution Bone): 0.41 %ID/g | tissue uptake at 1 h ([2]; fat, 1 h, read-out: Biodistribution Fat): 0.08 %ID/g | tissue uptake at 4 h [2, 7]: 0.01 %ID/g | tissue uptake at 24 h [2, 7]: 0.008 %ID/g | tissue uptake at 72 h [2, 7]: 0.006 %ID/g | tissue uptake at 1 h ([2]; fat, with LY2510924 7.5 μg i.p. 15 min before radiotracer, 1 h blocked, read-out: Biodistribution Fat): 0.16 %ID/g | tissue uptake at 1 h ([2]; heart, 1 h, read-out: Biodistribution Heart): 0.19 %ID/g | tissue uptake at 1 h ([2]; heart, 1 h blocked, read-out: Biodistribution Heart): 0.4 %ID/g | tissue uptake at 24 h ([2]; heart, read-out: Biodistribution Heart): 0.034 %ID/g | tissue uptake at 1 h ([2]; intestine, 1 h, read-out: Biodistribution Intestine): 0.28 %ID/g | tissue uptake at 1 h ([2]; intestine, 1 h blocked, read-out: Biodistribution Intestine): 0.58 %ID/g | tissue uptake at 24 h [2, 8]: 0.046 %ID/g | tissue uptake at 72 h [2, 8]: 0.017 %ID/g | tissue uptake at 1 h ([2]; kidney, 1 h, read-out: Biodistribution Kidney): 3.91 %ID/g | tissue uptake at 1 h ([2]; kidney, 1 h blocked, read-out: Biodistribution Kidney): 8.63 %ID/g | tissue uptake at 4 h [2, 9]: 2.98 %ID/g | tissue uptake at 24 h [2, 9]: 1.33 %ID/g | tissue uptake at 72 h [2, 9]: 0.573 %ID/g | tissue uptake at 1 h ([2]; liver, 1 h, read-out: Biodistribution Liver): 0.96 %ID/g | tissue uptake at 4 h [2, 10]: 0.87 %ID/g | tissue uptake at 24 h [2, 10]: 0.635 %ID/g | tissue uptake at 72 h [2, 10]: 0.413 %ID/g | tissue uptake at 1 h ([2]; liver, with LY2510924 7.5 μg i.p. 15 min before radiotracer, 1 h blocked, read-out: Biodistribution Liver): 1.07 %ID/g | tissue uptake at 1 h ([2]; lung, 1 h, read-out: Biodistribution Lung): 0.77 %ID/g | tissue uptake at 1 h ([2]; lung, 1 h blocked, read-out: Biodistribution Lung): 1.16 %ID/g | tissue uptake at 4 h [2, 11]: 0.27 %ID/g | tissue uptake at 24 h [2, 11]: 0.117 %ID/g | tissue uptake at 72 h [2, 11]: 0.06 %ID/g | tissue uptake at 1 h ([2]; muscle, 1 h, read-out: Biodistribution Muscle): 0.13 %ID/g | tissue uptake at 1 h ([2]; muscle, 1 h blocked, read-out: Biodistribution Muscle): 0.34 %ID/g | tissue uptake at 4 h [2, 12]: 0.04 %ID/g | tissue uptake at 24 h [2, 12]: 0.015 %ID/g | tissue uptake at 72 h [2, 12]: 0.007 %ID/g | tissue uptake at 1 h ([2]; pancreas, 1 h, read-out: Biodistribution Pancreas): 0.17 %ID/g | tissue uptake at 24 h [2, 13]: 0.028 %ID/g | tissue uptake at 72 h [2, 13]: 0.015 %ID/g | tissue uptake at 1 h ([2]; pancreas, with LY2510924 7.5 μg i.p. 15 min before radiotracer, 1 h blocked, read-out: Biodistribution Pancreas): 0.3 %ID/g | tissue uptake at 1 h ([2]; spleen, 1 h, read-out: Biodistribution Spleen): 0.49 %ID/g | tissue uptake at 4 h [2, 14]: 0.28 %ID/g | tissue uptake at 24 h [2, 14]: 0.321 %ID/g | tissue uptake at 72 h [2, 14]: 0.198 %ID/g | tissue uptake at 1 h ([2]; spleen, with LY2510924 7.5 μg i.p. 15 min before radiotracer, 1 h blocked, read-out: Biodistribution Spleen): 0.48 %ID/g | tissue uptake at 1 h ([2]; stomach, 1 h, read-out: Biodistribution Stomach): 0.1 %ID/g | tissue uptake at 4 h [2, 15]: 0.05 %ID/g | tissue uptake at 24 h [2, 15]: 0.206 %ID/g | tissue uptake at 72 h [2, 15]: 0.021 %ID/g | tissue uptake at 1 h ([2]; stomach, with LY2510924 7.5 μg i.p. 15 min before radiotracer, 1 h blocked, read-out: Biodistribution Stomach): 0.19 %ID/g | tissue uptake at 1 h ([2]; testes, 1 h, read-out: Biodistribution Testes): 0.21 %ID/g | tissue uptake at 1 h ([2]; testes, 1 h blocked, read-out: Biodistribution Testes): 0.32 %ID/g | tissue uptake at 24 h [2, 16]: 0.034 %ID/g | tissue uptake at 72 h [2, 16]: 0.034 %ID/g | tissue uptake at 1 h ([2]; whole blood, 1 h, read-out: Biodistribution Blood): 0.5 %ID/g | tissue uptake at 4 h [2, 17]: 0.02 %ID/g | tissue uptake at 24 h [2, 17]: 0.006 %ID/g | tissue uptake at 72 h [2, 17]: 0.002 %ID/g | tissue uptake at 1 h ([2]; whole blood, with LY2510924 7.5 μg i.p. 15 min before radiotracer, 1 h blocked, read-out: Biodistribution Blood): 1.14 %ID/g | Ratio Tumour:Blood ([3]; 1 h): 14.18 | Ratio Tumour:Bone ([3]; 1 h): 28.95 | Ratio Tumour:Liver ([3]; 1 h): 7.10 | Ratio Tumour:Lung ([3]; 1 h): 9.08 | Ratio Tumour:Muscle ([3]; 1 h): 56.86 | Ratio Tumour:Spleen ([3]; 1 h): 14.20 | Ratio Tumour:Blood ([3]; 1 h blocked): 0.77 | Ratio Tumour:Bone ([3]; 1 h blocked): 2.16 | Ratio Tumour:Liver ([3]; 1 h blocked): 0.78 | Ratio Tumour:Lung ([3]; 1 h blocked): 0.74 | Ratio Tumour:Muscle ([3]; 1 h blocked): 3.18 | Ratio Tumour:Spleen ([3]; 1 h blocked): 1.77 | Ratio Tumour:Blood ([3]; 4 h): 119.44 | Ratio Tumour:Bone ([3]; 4 h): 34.26 | Ratio Tumour:Liver ([3]; 4 h): 3.75 | Ratio Tumour:Lung ([3]; 4 h): 12.56 | Ratio Tumour:Muscle ([3]; 4 h): 90.57 | Ratio Tumour:Spleen ([3]; 4 h): 11.98 | Ratio Tumour:Blood ([3]; 24 h): 206.07 | Ratio Tumour:Bone ([3]; 24 h): 12.33 | Ratio Tumour:Liver ([3]; 24 h): 1.72 | Ratio Tumour:Lung ([3]; 24 h): 9.91 | Ratio Tumour:Muscle ([3]; 24 h): 76.90 | Ratio Tumour:Spleen ([3]; 24 h): 3.78 | Ratio Tumour:Blood ([3]; 72 h): 126.69 | Ratio Tumour:Bone ([3]; 72 h): 5.88 | Ratio Tumour:Liver ([3]; 72 h): 0.86 | Ratio Tumour:Lung ([3]; 72 h): 6.60 | Ratio Tumour:Muscle ([3]; 72 h): 50.64 | Ratio Tumour:Spleen ([3]; 72 h): 1.53
